Test results as given in paper PMC11554305, “Functional identification of soluble uric acid as an endogenous inhibitor of CD38” (eLife, 2024).

What was measured:
[1] = biological target: uricase; parameters: method as in Fridovich, 1965; details: ref Fridovich, 1965; cited from earlier work
[2] = biological target: T1, nicotinamide phosphoribosyltransferase (NAMPT) (Homo sapiens, UniProt P43490); assay: NAMPT activity (colorimetric kit); type: biochemical; details: Figure 3—figure supplement 2A
T1 construct: purchased MBL CY-1251V2
T1 sequence (P43490 whole entry): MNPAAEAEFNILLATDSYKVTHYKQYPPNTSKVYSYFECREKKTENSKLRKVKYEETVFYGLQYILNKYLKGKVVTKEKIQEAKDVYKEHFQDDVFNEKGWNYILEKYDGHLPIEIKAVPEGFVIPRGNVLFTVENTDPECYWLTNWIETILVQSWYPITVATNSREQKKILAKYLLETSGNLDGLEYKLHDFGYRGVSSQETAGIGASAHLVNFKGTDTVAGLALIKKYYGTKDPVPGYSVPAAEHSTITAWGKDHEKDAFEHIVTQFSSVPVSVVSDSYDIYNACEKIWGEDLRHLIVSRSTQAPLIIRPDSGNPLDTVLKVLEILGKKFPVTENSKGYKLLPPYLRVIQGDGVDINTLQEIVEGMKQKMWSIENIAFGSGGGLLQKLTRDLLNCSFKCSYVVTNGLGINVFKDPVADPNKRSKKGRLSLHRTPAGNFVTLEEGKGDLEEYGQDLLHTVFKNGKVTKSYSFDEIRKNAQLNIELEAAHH
Description: The activities of NAMPT and PARP were measured using commercial kits, HT Universal Colorimetric PARP Assay Kit, and CycLex NAMPT Colorimetric Assay Kit Ver.2. The solutions of ligands were freshly prepared (pH was adjusted to 7.4) and were immediately used for enzyme assays.

[3] = biological target: T2, recombinant hCD38 (Homo sapiens, UniProt P28907); assay: Metabolic assay of NAD+ (degradation by recombinant hCD38); type: biochemical; details: sUA 100, 200 or 500 μM; NAD+ 200 μM; hCD38 20 ng/mL; Figure 3F
T2 construct: the commercial recombinant hCD38 without a transmembrane region was partially used in this study; purchased Sino Biological 10818-H08H
T2 sequence (P28907 43-300 limits assumed): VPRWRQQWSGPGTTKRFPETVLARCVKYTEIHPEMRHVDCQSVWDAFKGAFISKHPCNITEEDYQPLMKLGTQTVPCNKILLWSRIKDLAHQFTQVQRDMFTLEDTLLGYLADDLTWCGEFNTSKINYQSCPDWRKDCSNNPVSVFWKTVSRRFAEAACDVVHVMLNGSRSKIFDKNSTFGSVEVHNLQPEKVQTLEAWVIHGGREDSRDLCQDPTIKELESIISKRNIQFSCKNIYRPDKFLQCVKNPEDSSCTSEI
Description: NAD^+ degradation by recombinant hCD38 was detected in hydrolase reaction buffer. At first, sUA (100, 200, and 500 μM) or other ligands at 500 μM in hydrolase reaction buffer (250 mM sucrose, 40 mM Tris) was freshly prepared, then the pH was immediately adjusted to 7.4 by HCl. Recombinant hCD38 was added into the buffer of experimental groups at 20 ng/mL, then the buffer was maintained at 37°C. The substrate NAD^+ was dissolved in hydrolase reaction buffer (pH 7.4) at 10 mM, and the pH was further adjusted to 7.4. The reaction was started with the addition of NAD^+ in the buffer for each group (final concentration is 200 μM), including control group (recombinant hCD38 free). All the buffers were incubated at 37°C with constant stirring. […]
As mentioned above, samples (cells, tissues, blood, or reaction buffer) were treated with ice-cold PCA, after extraction and centrifugation, the collected supernatant was appropriately diluted in 5% ice-cold PCA when applicable, and then was vortexed for 30 s and centrifuged at 15,000 rpm, 4°C for 5 min. […] All the samples after handling were immediately analyzed in this study without freezing and thawing.
The LC-MS/MS system consisted of a triple quadrupole LCMS-8050 (Shimadzu) and an LC-30A system (Shimadzu). […] NAD^+ and NMN were measured independently in this study, as their peaks were hardly separated within a short time.

[4] = system: bone marrow-derived macrophages (BMDMs); assay: Extracellular NMN degradation in primed BMDMs; type: cell-based, mouse; details: WT BMDMs, not in CD38 KO BMDMs; NMN 100 μM, 6 hr
Description: (§1) Bone marrow cells were isolated from 10- to 12-week-old WT or CD38 KO mice (both male and female) by washing the marrow cavity with sterile PBS. The collected bone marrow cells were filtered by 70 μm strainers and then centrifuged at 1000 rpm, 4°C for 5 min. The cell pellet was resuspended in 2 mL red blood cell (RBC) lysis buffer for 30 s, then 8 mL complete RPMI-1640 medium (10% FBS, 1% penicillin/streptomycin, and 50 μM 2-mercaptoethanol) was added to terminate the lysis. After 5 min centrifugation at 1000 rpm, 4°C, the cells were resuspended in fresh complete RPMI-1640 medium and maintained for 4 hr in an incubator. Adherent cells were discarded, whereas non-adherent cells were cultured in complete RPMI-1640 medium containing 20 ng/mL M-CSF. After 3-day differentiation, the medium was replaced with fresh complete RPMI-1640 medium containing 20 ng/mL M-CSF. On the 7th day, BMDMs were collected for subsequent experiments. BMDMs were primed with 100 ng/mL ultrapure LPS for 4 hr for canonical inflammasome assay. For metabolic assay of NMN, BMDMs were primed with 100 ng/mL ultrapure LPS for 8 hr to induce higher protein expression of CD38.
WT and CD38 KO BMDMs were primed with 100 ng/mL ultrapure LPS for 8 hr, then the cells were washed twice with sterile PBS. Primed BMDMs were maintained in RPMI-1640 medium supplemented with 100 μM NMN in the presence or absence of sUA. […]

[5] = system: WT BMDMs; assay: Intracellular NAD+ in primed WT BMDMs treated with NMN; type: cell-based, mouse; details: sUA 100, 200 and 500 μM; NMN 100 μM, 6 hr
Description: as §1
WT BMDMs were primed with 100 ng/mL ultrapure LPS for 8 hr. Then, the cells were washed twice with sterile PBS. Afterward, the cells were incubated in control or 100 μM NMN-supplemented RPMI-1640 medium in the presence of sUA or 78c. […]

For `O=C(O)c1nc(=O)[nH]c(=O)[nH]1` [OA, oxonic acid, reference compound], the Ki for uricase [1] is given as “nanomolar range”.

For `O=c1[nH]c(=O)c2[nH]c(=O)[nH]c2[nH]1` [sUA, uric acid], the “Effect on NAMPT activity” value [2] was “without affecting the activities”, the “NAD+ availability, degradation by recombinant hCD38” value [3] was “increased NAD^+ availability” and the “Extracellular NMN availability” value [4] was “increased extracellular NMN availability”. The “Intracellular NAD+ in primed WT BMDMs treated with NMN” value [5] was “failed to boost intracellular NAD^+”.
